Assays:
Rattus norvegicus [1] = assay: Evaluated in rat striatum for the effect on dopamine release and metabolism in brain dialysis model after administration of 50 umol / kg subcutaneously; type: functional; design: unit not given beside the values
D(4) dopamine receptor [2] = target: T1, D(4) dopamine receptor (Homo sapiens, UniProt P21917)
T1 sequence (P21917 whole entry): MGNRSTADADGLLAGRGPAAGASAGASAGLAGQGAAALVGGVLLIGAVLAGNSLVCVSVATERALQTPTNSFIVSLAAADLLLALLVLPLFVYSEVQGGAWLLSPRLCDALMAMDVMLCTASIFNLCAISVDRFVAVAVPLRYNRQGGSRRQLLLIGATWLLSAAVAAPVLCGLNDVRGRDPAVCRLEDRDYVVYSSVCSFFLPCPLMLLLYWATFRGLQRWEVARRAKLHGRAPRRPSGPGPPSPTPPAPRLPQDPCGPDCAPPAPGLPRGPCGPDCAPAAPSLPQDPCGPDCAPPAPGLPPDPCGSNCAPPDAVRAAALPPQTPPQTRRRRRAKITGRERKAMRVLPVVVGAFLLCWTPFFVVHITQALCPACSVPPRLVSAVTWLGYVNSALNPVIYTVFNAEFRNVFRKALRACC
Description: (§1) Binding towards dopamine receptor D4 expressed in CHO-K1 cells using [3H]spiperone

Rattus norvegicus [3] = assay: Evaluated for rat locomotor activity in nonhabituated rats at 213 umol / kg administered subcutaneously; type: functional
Rattus norvegicus [4] = assay: Evaluated for DOPA accumulation in limbic region of reserpine pretreated rat at 100 umol / kg administered intraperitoneally; type: functional, Limbic system
D(2) dopamine receptor [5] = target: T2, D(2) dopamine receptor (Bos taurus, UniProt P20288); assay: Evaluated for binding towards Dopamine receptor D2 using [3H]-spiperone as radioligand, in cloned mammalian receptors expressed in CHO-K1 cells; type: cell-based
T2 sequence (P20288 whole entry): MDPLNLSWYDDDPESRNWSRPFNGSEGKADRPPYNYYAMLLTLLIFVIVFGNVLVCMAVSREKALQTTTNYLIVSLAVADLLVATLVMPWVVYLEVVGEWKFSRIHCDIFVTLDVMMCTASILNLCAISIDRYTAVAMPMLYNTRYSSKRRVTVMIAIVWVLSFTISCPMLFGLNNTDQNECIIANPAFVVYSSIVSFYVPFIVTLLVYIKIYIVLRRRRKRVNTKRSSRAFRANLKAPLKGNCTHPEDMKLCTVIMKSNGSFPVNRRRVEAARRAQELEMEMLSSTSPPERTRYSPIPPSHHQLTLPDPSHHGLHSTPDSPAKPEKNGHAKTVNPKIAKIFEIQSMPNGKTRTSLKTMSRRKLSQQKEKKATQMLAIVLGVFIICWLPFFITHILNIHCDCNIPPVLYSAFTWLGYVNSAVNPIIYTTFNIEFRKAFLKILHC

Rattus norvegicus [6] = assay: Evaluated for DOPA accumulation in striatum of nonpretreated rat at 25 umol / kg administered subcutaneously; type: functional
Rattus norvegicus [7] = organism: Rattus norvegicus; assay: Evaluated for rat locomotor activity in nonhabituated rats at 25 umol / kg; type: functional
Rattus norvegicus [8] = assay: Evaluated in rat striatum for the effect on DOPAC release and metabolism in brain dialysis model after administration of 50 umol / kg subcutaneously; type: functional; design: unit not given beside the values
Rattus norvegicus [9] = organism: Rattus norvegicus; assay: Rat locomotor activity in reserpine pretreated rats and accumulated counts / 30 min is calculated; type: functional
Rattus norvegicus [10] = assay: Evaluated for DOPA accumulation in limbic region of nonpretreated rat at 25 umol / kg administered subcutaneously; type: functional, Limbic system
D(2) dopamine receptor [11] = target: T2, D(2) dopamine receptor; assay: Binding towards Dopamine receptor D2 expressed in CHO-K1 cells using [3H]U-86170; type: cell-based
Rattus norvegicus [12] = assay: Evaluated for 5-HTP increase in hemisphere region of nonpretreated rat at 27 umol / kg administered subcutaneously; type: functional
Rattus norvegicus [13] = assay: Evaluated in rat accumbens for the effect on DOPAC release and metabolism in brain dialysis model after administration of 50 umol / kg subcutaneously; type: functional
Rattus norvegicus [14] = assay: Evaluated for DOPA accumulation in limbic region of reserpine pretreated rat at 27 umol / kg administered subcutaneously; type: functional, Limbic system
Rattus norvegicus [15] = organism: Rattus norvegicus; assay: Evaluated for rat locomotor activity in nonpretreated habituated rats at 100 umol / kg; type: functional; design: unit not given beside the values
Rattus norvegicus [16] = assay: Evaluated in rat accumbens for the effect on dopamine release and metabolism in brain dialysis model after administration of 50 umol / kg subcutaneously; type: functional
Rattus norvegicus [17] = assay: Evaluated for 5-HTP increase in limbic region of nonpretreated rat at 27 umol / kg administered subcutaneously; type: functional, Limbic system
D(2) dopamine receptor [18] = target: T3, D(2) dopamine receptor (Rattus norvegicus, UniProt P61169); assay: Binding towards Dopamine receptor D2 using [3H]spiperone from rat striatal membrane
T3 sequence (P61169 whole entry): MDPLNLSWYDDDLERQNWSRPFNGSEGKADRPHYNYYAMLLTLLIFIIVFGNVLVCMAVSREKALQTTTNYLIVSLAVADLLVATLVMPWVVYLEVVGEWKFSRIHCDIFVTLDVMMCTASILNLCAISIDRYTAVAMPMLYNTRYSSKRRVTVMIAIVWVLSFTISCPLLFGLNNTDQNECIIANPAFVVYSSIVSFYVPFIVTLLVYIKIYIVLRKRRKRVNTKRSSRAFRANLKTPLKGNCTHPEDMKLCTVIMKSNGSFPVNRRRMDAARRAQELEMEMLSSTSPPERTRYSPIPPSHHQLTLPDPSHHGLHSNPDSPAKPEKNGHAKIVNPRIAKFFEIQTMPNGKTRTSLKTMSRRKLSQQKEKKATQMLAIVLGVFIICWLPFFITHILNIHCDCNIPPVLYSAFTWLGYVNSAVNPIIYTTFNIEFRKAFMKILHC

Rattus norvegicus [19] = organism: Rattus norvegicus; assay: Evaluated for rat locomotor activity in nonpretreated habituated rats at 25 umol / kg; type: functional
Rattus norvegicus [20] = assay: Evaluated for DOPA accumulation in limbic region of reserpine pretreated rat at 52 umol / kg administered subcutaneously; type: functional, Limbic system
Rattus norvegicus [21] = assay: Evaluated for DOPA accumulation in striatum of reserpine pretreated rat at 100 umol / kg administered intraperitoneally; type: functional
Rattus norvegicus [22] = assay: Evaluated for 5-HTP increase in limbic region of nonpretreated rat at 100 umol / kg administered subcutaneously; type: functional, Limbic system
D(3) dopamine receptor = D(3) dopamine receptor (Homo sapiens, UniProt P35462)
D(3) dopamine receptor, sequence (P35462 whole entry): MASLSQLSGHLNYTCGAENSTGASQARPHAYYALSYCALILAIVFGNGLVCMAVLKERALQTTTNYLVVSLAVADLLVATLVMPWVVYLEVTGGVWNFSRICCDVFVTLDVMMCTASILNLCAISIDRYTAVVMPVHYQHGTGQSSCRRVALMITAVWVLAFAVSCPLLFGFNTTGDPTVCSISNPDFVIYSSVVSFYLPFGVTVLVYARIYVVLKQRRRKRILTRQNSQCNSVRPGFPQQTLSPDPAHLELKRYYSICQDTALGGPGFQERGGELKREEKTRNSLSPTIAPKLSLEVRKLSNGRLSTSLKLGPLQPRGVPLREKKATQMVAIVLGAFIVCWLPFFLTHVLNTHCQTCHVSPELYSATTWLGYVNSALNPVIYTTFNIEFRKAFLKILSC
Description: Binding towards Dopamine receptor D3 expressed in CHO-K1 cells using [3H]spiperone

D(4) dopamine receptor [23] = target: T1, D(4) dopamine receptor; conditions: cho-k1
Description: as §1

Rattus norvegicus [24] = assay: Evaluated for DOPA accumulation in striatum of nonpretreated rat at 100 umol / kg administered subcutaneously; type: functional
[25] = target: T4, Sigma non-opioid intracellular receptor 1 (Rattus norvegicus, UniProt Q9R0C9); assay: Binding effinity for sigma receptor using 2 nM of [3H]DTG as radioligand, in membranes from brain minus cerebellum; type: tissue-based
T4 sequence (Q9R0C9 whole entry): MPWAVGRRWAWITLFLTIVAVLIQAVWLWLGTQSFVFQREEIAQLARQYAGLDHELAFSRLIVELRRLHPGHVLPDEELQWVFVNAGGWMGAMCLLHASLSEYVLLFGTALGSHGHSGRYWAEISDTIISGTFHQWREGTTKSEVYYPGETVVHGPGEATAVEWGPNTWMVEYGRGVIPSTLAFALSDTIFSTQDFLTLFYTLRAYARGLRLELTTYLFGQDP

D(2) dopamine receptor [26] = target: T3, D(2) dopamine receptor; assay: Evaluated for binding towards Dopamine receptor D2 using [3H]N-0437 as radioligand from rat striatal membrane
Rattus norvegicus [27] = assay: Evaluated for DOPA accumulation in limbic region of nonpretreated rat at 100 umol / kg administered subcutaneously; type: functional, Limbic system
Rattus norvegicus [28] = assay: Evaluated for DOPA accumulation in striatum of nonpretreated rat at 52 umol / kg administered subcutaneously; type: functional
Rattus norvegicus [29] = assay: Evaluated for 5-HTP increase in limbic region of nonpretreated rat at 52 umol / kg administered subcutaneously; type: functional, Limbic system
Rattus norvegicus [30] = assay: Evaluated for 5-HTP increase in hemisphere region of nonpretreated rat at 100 umol / kg administered subcutaneously; type: functional
Rattus norvegicus [31] = assay: Evaluated for DOPA accumulation in limbic region of nonpretreated rat at 52 umol / kg administered subcutaneously; type: functional, Limbic system
Rattus norvegicus [32] = assay: Evaluated for 5-HTP increase in hemisphere region of nonpretreated rat at 200 umol / kg administered subcutaneously; type: functional
[33] = target: T4, Sigma non-opioid intracellular receptor 1; assay: Binding affinity for sigma receptor using 2 nM of [3H]DTG as radioligand, in membranes from brain minus cerebellum; type: tissue-based
Rattus norvegicus [34] = assay: Evaluated for 5-HTP increase in limbic region of nonpretreated rat at 200 umol / kg administered subcutaneously; type: functional, Limbic system
Rattus norvegicus [35] = assay: Evaluated for DOPA accumulation in striatum of nonpretreated rat at 200 umol / kg administered subcutaneously; type: functional
Rattus norvegicus [36] = assay: Evaluated for rat locomotor activity in nonhabituated rats at 200 umol / kg administered subcutaneously; type: functional
Rattus norvegicus [37] = assay: Evaluated for DOPA accumulation in limbic region of nonpretreated rat at 200 umol / kg administered subcutaneously; type: functional, Limbic system
Rattus norvegicus [38] = organism: Rattus norvegicus; assay: Evaluated for rat locomotor activity in nonhabituated rats at 100 umol / kg; type: functional
[39] = Half life was estimated from the elimination phase of the blood concentration curves after peroral administration; type: ADME, organism-based; conditions: po
Rattus norvegicus [40] = assay: Evaluated for DOPA accumulation in limbic region of nonpretreated rat at 13 umol / kg administered subcutaneously; type: functional, Limbic system
Rattus norvegicus [41] = assay: Evaluated for DOPA accumulation in striatum of nonpretreated rat at 13 umol / kg administered subcutaneously; type: functional
Rattus norvegicus [42] = assay: Evaluated for rat locomotor activity in nonhabituated rats at 13 umol / kg administered intraperitoneally; type: functional
Rattus norvegicus [43] = assay: Evaluated for 5-HTP increase in hemisphere region of nonpretreated rat at 100 umol / kg administered subcutaneously (p<0.05); type: functional
Rattus norvegicus [44] = organism: Rattus norvegicus; assay: Evaluated for rat locomotor activity in nonpretreated habituated rats at 100 umol / kg (p<0.05); type: functional
Rattus norvegicus [45] = assay: Evaluated for DOPA accumulation in limbic region of reserpine pretreated rat at 100 umol / kg administered intraperitoneally (p<0.05); type: functional, Limbic system
Rattus norvegicus [46] = organism: Rattus norvegicus; assay: Evaluated for rat locomotor activity in nonpretreated habituated rats at 25 umol / kg (p<0.05); type: functional
Rattus norvegicus [47] = assay: Evaluated for DOPA accumulation in striatum of nonpretreated rat at 100 umol / kg administered subcutaneously (p<0.05); type: functional
Rattus norvegicus [48] = organism: Rattus norvegicus; assay: Rat locomotor activity in reserpine pretreated rats and accumulated counts / 30 min; type: functional
Rattus norvegicus [49] = assay: Evaluated for DOPA accumulation in limbic region of nonpretreated rat at 100 umol / kg administered subcutaneously (p<0.05); type: functional, Limbic system

| SMILES | Activity (Rattus norvegicus [1]) | Ki (D(4) dopamine receptor [2]) | Activity (Rattus norvegicus [4]) | Ki (D(2) dopamine receptor [5]) | Activity (Rattus norvegicus [6]) | Activity (Rattus norvegicus [7]) | Activity (Rattus norvegicus [8]) | Activity (Rattus norvegicus [9]) | Activity (Rattus norvegicus [10]) | Ki (D(2) dopamine receptor [11]) | Activity (Rattus norvegicus [13]) | Activity (Rattus norvegicus [15]) | Activity (Rattus norvegicus [16]) | Ki (D(2) dopamine receptor [18]) | Activity (Rattus norvegicus [21]) | Activity (Rattus norvegicus [22]) | Ki (D(3) dopamine receptor) | IC50 [25] | Ki (D(2) dopamine receptor [26]) | Activity (Rattus norvegicus [38]) | also measured |
| --- | --- | --- | --- | --- | --- | --- | --- | --- | --- | --- | --- | --- | --- | --- | --- | --- | --- | --- | --- | --- | --- |
| CCCN1CCCC(c2cccc(O)c2)C1 (single isomer, unassigned; (+)) | 28 | > 1000 nM | 18 | 776 nM | 43 | 75 | 42 | 78 | 37 | 32 nM | – | – | – | – | – | – | – | – | – | – | Activity (Rattus norvegicus [3]): 230 |
| CCCN1CCCC(c2cccc(O)c2)C1 (single isomer, unassigned; (-)) | 700 | 130 nM | – | 137 nM | 147 | 74 | 70 | 12 | 91 | 8.5 nM | 115 | 208 | 98 | – | – | – | – | – | – | – | Activity (Rattus norvegicus [12]): 87; Activity (Rattus norvegicus [3]): 40; Activity (Rattus norvegicus [14]): 30; Activity (Rattus norvegicus [17]): 89 |
| CCCN1CCCC(c2cccc(C#N)c2)C1 (single isomer, unassigned; (-)) | 295 | – | – | 889 nM | 285 | – | 299 | 12 | 204 | 119 nM | – | 719 | 294 | 1140 nM | 105 | 148 | 249 nM | 2200 nM | 396 nM | – | Activity (Rattus norvegicus [19]): 418; Activity (Rattus norvegicus [20]): 136; Ki (D(4) dopamine receptor [23]): > 933 nM; Activity (Rattus norvegicus [24]): 268; Activity (Rattus norvegicus [27]): 219 |
| CCCN1CCCC(c2cccc(C#N)c2)C1 (racemic) | – | – | – | – | – | – | – | – | – | – | – | – | – | – | – | – | – | – | – | – | Activity (Rattus norvegicus [28]): 281; Activity (Rattus norvegicus [29]): 99; Activity (Rattus norvegicus [30]): 103; Activity (Rattus norvegicus [31]): 198 |
| CCCN1CCCC(c2cccc(C#N)c2)C1 (single isomer, unassigned; (+)) | – | > 933 nM | – | > 2000 nM | 84 | 104 | – | 6 | 109 | 1720 nM | – | 559 | – | 12600 nM | 81 | – | > 1420 nM | – | 4900 nM | – | Activity (Rattus norvegicus [32]): 94; Activity (Rattus norvegicus [20]): 93; IC50 [33]: 520 nM; Activity (Rattus norvegicus [34]): 71; Activity (Rattus norvegicus [35]): 78; Activity (Rattus norvegicus [36]): 118; Activity (Rattus norvegicus [37]): 94 |
| CCCN1CCC[C@@H](c2cccc(OS(=O)(=O)C(F)(F)F)c2)C1 | 208 | – | 94 | – | 221 | 128 | 162 | 25 | 139 | – | 152 | – | 153 | – | 89 | 102 | – | 32 nM | – | 129 | half-life [39]: 3.5 h; Activity (Rattus norvegicus [30]): 108; Activity (Rattus norvegicus [24]): 264 |
| CCCN(CCC)[C@@H]1CCc2c(OC)cccc2[C@@H]1C | 209 | 48 nM | 116 | 18 nM | – | – | 307 | 29 | – | 13 nM | 207 | 220 | 231 | 70 nM | 109 | – | 4 nM | – | 100 nM | 70 | Activity (Rattus norvegicus [28]): 370; Activity (Rattus norvegicus [40]): 180; Activity (Rattus norvegicus [41]): 270; Activity (Rattus norvegicus [19]): 220; Activity (Rattus norvegicus [42]): 140; Activity (Rattus norvegicus [31]): 245 |
| CCCN1CCC[C@H](c2cccc(OS(=O)(=O)C(F)(F)F)c2)C1 | – | – | – | – | 92 | 115 | – | – | 93 | – | – | – | – | – | 80 | 86 | – | 6 nM | – | 95 | Activity (Rattus norvegicus [43]): 86; Activity (Rattus norvegicus [44]): 34; Activity (Rattus norvegicus [45]): 75; Activity (Rattus norvegicus [46]): 30; Activity (Rattus norvegicus [47]): 80; Activity (Rattus norvegicus [48]): 2; Activity (Rattus norvegicus [49]): 82 |
